Assay results published in patent publication US10028992B2, “Methods of treating muscular dystrophy” (BOARD OF REGENTS OF THE NEVADA SYSTEM OF HIGHER EDUCATION …, priority 2012, dated 2018).

Test system: α7 integrin promoter
Assay: muscle cell-based assay: α7βgal+/− myoblasts/myotubes, LacZ reporter, β-galactosidase cleavage of FDG
Design: species or system mouse; Results in α7+/− β-galactosidase assay: scale not given here
Settings: for Results in α7+/− β-galactosidase assay: Myoblasts; for EC50 / AC50: Mus musculus; for EC50: given as log AC50 (negative values), read-out: Fit LogAC50 (converted); for Fit Curve Class: key not given; for Results in a α7+/− β-galactosidase assay, Myotubes, 0.5 uM: compound at 0.5 uM; for Results in a α7+/− β-galactosidase assay, Myotubes, 1 uM: compound at 1 uM; for Results in a α7+/− β-galactosidase assay, Myotubes, 5 uM: compound at 5 uM; for Results in a α7+/− β-galactosidase assay, Myotubes, 10 uM: compound at 10 uM; for Results in a α7+/− β-galactosidase assay, Myotubes, 20 uM: compound at 20 uM; for Results in a α7+/− β-galactosidase assay, Myotubes, 40 uM: compound at 40 uM; for AC50: log of AC50, given with negative sign, unit of AC50 not given, read-out: Fit Log AC50 (converted)
Summary of the method: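 Primary α7βgal+/− mouse myoblasts (LacZ knocked into α7 integrin exon 1, promoter retained), differentiated; promoter activity read as β-galactosidase conversion of non-fluorescent FDG to fluorescein. Hits followed by dose-response, western analysis and myostatin counterscreen.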

[1] = curve fit, activity at zero concentration
[2] = Table 12, fitted activity at zero concentration
[3] = Table 12 Compound data, concentration-response curve fit

EC50 [µM]	Compound	Score (Table 12 compound data)	Fit Curve Class (curve class number)	Fit HillSlope (curve fit)	Fit Zero Activity [%] [1] [%]	Results in a α7+/− β-galactosidase assay, Myotubes, 0.5 uM	Results in a α7+/− β-galactosidase assay, Myotubes, 1 uM	Results in a α7+/− β-galactosidase assay, Myotubes, 5 uM	Results in a α7+/− β-galactosidase assay, Myotubes, 10 uM	Results in a α7+/− β-galactosidase assay, Myotubes, 20 uM	Results in a α7+/− β-galactosidase assay, Myotubes, 40 uM	other results
–	Cc1cccc(NCC(=O)N/N=C/c2ccccn2)c1 [drawing 691]	–	–	–	–	–	–	–	–	–	–	Results in α7+/− β-galactosidase assay (0.5 uM): 0.1681; Results in α7+/− β-galactosidase assay (1 uM): 0.3046; Results in α7+/− β-galactosidase assay (5 uM): 0.3928; Results in α7+/− β-galactosidase assay (10 uM): 0.1778; Results in α7+/− β-galactosidase assay (20 uM): −0.1319; Results in α7+/− β-galactosidase assay (40 uM): −0.4037
10	O=C(CSc1nnc(C2CC2)n1C1CC1)c1cccs1 [Compound 133]	42	2.1	2.7202	−27.5656	–	–	–	–	–	–	–
10	O=[N+]([O-])c1cccc(S(=O)(=O)N2CCN(S(=O)(=O)N3CCOCC3)CC2)c1 [Compound 158]	42	2.2	1.9282	−0.5234	–	–	–	–	–	–	–
–	c1ccc(-c2cc(-c3nc4ccccc4[nH]3)c3ccccc3n2)cc1 [drawing 432]	–	–	–	–	−0.06598	−0.05419	−0.2722	−0.06437	−0.3184	−0.5085	–
–	CCN(C(=O)c1ccc(S(=O)(=O)N(C)C)cc1)C(C)C(=O)Nc1ccc(C)cc1 (stereo not drawn) [drawing 348]	–	–	–	–	−0.152	−0.2399	−0.0943	0.05776	−0.2237	0.02912	–
–	Cc1cccc(Cn2cnc3c(nnn3Cc3ccc(Cl)cc3)c2=O)c1 [drawing 450]	–	–	–	–	0.04908	−0.01328	−0.09823	−0.3107	−0.1707	−0.1775	–
–	COc1ccc(CCNC(=O)Cn2nnc(C(=O)Nc3ccc(Br)cc3)c2N)cc1OC [drawing 325]	–	–	–	–	0.151	−0.08157	−0.07294	−0.05869	−0.4709	−0.3389	–
–	CS(=O)(=O)c1ccc(Cl)c(NC(=O)CSc2nncn2-c2ccccc2)c1 [Compound 55]	–	–	–	–	–	–	–	–	–	–	AC50 (Table 12): 12.6 µM; Fit HillSlope (Table 12, curve fit): 4.9549; Fit Zero Activity [%] [2]: −18.4203%; Fit Curve Class (Table 12): 2.1; Score [3]: 45
–	COc1cccc(C(=O)COc2ccc3ccc(=O)oc3c2)c1 [drawing 571]	–	–	–	–	–	–	–	–	–	–	Results in α7+/− β-galactosidase assay (0.5 uM): 0.09281; Results in α7+/− β-galactosidase assay (1 uM): 0.06053; Results in α7+/− β-galactosidase assay (5 uM): −0.01266; Results in α7+/− β-galactosidase assay (10 uM): 0.02813; Results in α7+/− β-galactosidase assay (20 uM): 0.004164; Results in α7+/− β-galactosidase assay (40 uM): −0.04457
–	CCOn1c(=O)c(-c2ccccc2)[n+]([O-])c2ccccc21 [drawing 332]	–	–	–	–	0.2995	0.2794	0.2514	0.005171	−0.0871	−0.1572	–
8.91	O=C(NCCCn1ccnc1)/C(=C/c1cccs1)NC(=O)c1ccco1 [Compound 124]	43	2.1	1.2475	−20.4393	–	–	–	–	–	–	–
–	CCCCS(=O)(=O)N1CCCC(C(=O)NCCc2ccccc2)C1 (stereo not drawn) [Compound 111]	–	–	–	–	–	–	–	–	–	–	AC50 (Table 12): 7.08 µM; Fit HillSlope (Table 12, curve fit): 1.21; Fit Zero Activity [%] [2]: 2.2101%; Fit Curve Class (Table 12): 2.1; Score [3]: 43
11.2	O=C(O)CCCNC(=O)CCn1nnc2ccccc2c1=O [Compound 174]	42	2.1	1.8579	−20.386	–	–	–	–	–	–	–
